Measured values taken from patent US7071220B2, “N-substituted benzothiophenesulfonamide derivatives” (Toa Eiyo Ltd., priority 2000, dated 2006).
Numbering of substitutions follows the chain as printed. Read-outs that look alike come from different tables or passages of the source.

What was measured:
[1] = target: T1, Cathepsin G (Homo sapiens, UniProt P08311); experiment: Measurement of cathepsin G inhibitory activity (Suc-Ala-Ala-Pro-Phe-pNA); assay type: biochemical; settings: cathepsin G from human purulent sputum; 60 minutes at 37° C.
T1 construct: the product of Elastin Products Company, Inc. derived from human purulent sputum was used; purchased Elastin Products Company, Inc; host or cells: human purulent sputum
T1 sequence (P08311 21-244): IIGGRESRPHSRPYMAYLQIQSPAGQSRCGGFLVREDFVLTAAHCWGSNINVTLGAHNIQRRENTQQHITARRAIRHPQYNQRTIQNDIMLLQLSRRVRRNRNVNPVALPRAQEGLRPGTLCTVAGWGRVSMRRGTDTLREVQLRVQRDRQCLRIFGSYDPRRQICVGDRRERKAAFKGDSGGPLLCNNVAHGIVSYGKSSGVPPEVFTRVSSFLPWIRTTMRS
Experimental: (§1) Measurement of Cathepsin G Inhibitory Activity and Chymotrypsin Inhibitory Activity
(§2) Each activity of cathepsin G or chymotrypsin was measured by determining the amount of free p-nitroaniline quantitatively using a synthetic substrate that is colorless and yields colored product upon hydrolysis, by means of a spectrophotometer. Chymotrypsin Type I-S derived from bovine pancreas was purchased from SIGMA. As cathepsin G, the product of Elastin Products Company, Inc. derived from human purulent sputum was used. Suc-Ala-Ala-Pro-Phe-pNA (manufactured by SIGMA) was used as the synthetic substrate. An inhibitory effect of a compound on each enzyme was determined by the following method.
(§3) Each test compound (5 μmol) was weighed in a test tube and dissolved into 2 mL of DMSO. […] Then, 200 μL of 1 mmol/L substrate solution was added to initiate en enzymatic reaction under a temperature of 37° C.
(§4) Based on each inhibitory ratio, IC50 value was calculated.

[2] = test system: rat cecum-scraped adhesion model; experiment: Investigation in rat cecum-scraped adhesion model; assay type: in vivo; settings: 2 mL PBS solution 10^−5 mol/L intraperitoneally; 1 week after operation; control 63.6%
Experimental: Investigation in Rat Cecum-scraped Adhesion Model
Six-week-old SD rats were subjected to midline incision at lower abdominal region under pentobarbital anesthetization (70 mg/kg, intramuscular injection), and the cecum was taken out of the incised part. Two parts of serous membrane of the cecum (about 2 cm^2 each) were rubbed with a cotton swab a hundred times until petechial hemorrhage occurs, followed by dropwise addition of 100 μL of ethanol. The cecum was again set in abdominal cavity, and then, 2 mL of a phosphate buffered saline (hereinafter, abbreviated as PBS, pH 7.4) solution of a test compound (Compound 24 or 70) was added dropwise intraperitoneally, and then the incised part was sutured. The concentration of each test compound solution was 10^−5 mol/L in a control group, PBS alone was added dropwise, followed by a similar treatment. Each group had 11 or 12 rats. After 1 week from the operation, the animals were slaughtered, the abdominal part was re-incised and an adhesion state of the cecum was evaluated according to adhesion scores using the adhesion intensity and adhesion area as indexes. The score values were determined according to the following 5-grade scores. In this connection, adhered region (%) was determined as percentage of total area of the adhered parts relative to the area of the rubbed regions. […]

[3] = target: T2, Chymotrypsin (Bos taurus, UniProt P00766); experiment: Measurement of chymotrypsin inhibitory activity (Suc-Ala-Ala-Pro-Phe-pNA); assay type: biochemical; settings: Chymotrypsin Type I-S from bovine pancreas; 30 minutes at 37° C.
T2 construct: Chymotrypsin Type I-S derived from bovine pancreas; purchased SIGMA Type I-S; host or cells: bovine pancreas
Experimental: as §1, §2, §3, §4

[4] = target: T3, Simian chymase (Macaca mulatta, UniProt F6SAJ2); experiment: Measurement of inhibitory activity of simian chymase (Ang I substrate, His-Leu/OPT fluorescence); assay type: biochemical, rhesus monkey
T3 sequence (F6SAJ2 22-247 limits assumed): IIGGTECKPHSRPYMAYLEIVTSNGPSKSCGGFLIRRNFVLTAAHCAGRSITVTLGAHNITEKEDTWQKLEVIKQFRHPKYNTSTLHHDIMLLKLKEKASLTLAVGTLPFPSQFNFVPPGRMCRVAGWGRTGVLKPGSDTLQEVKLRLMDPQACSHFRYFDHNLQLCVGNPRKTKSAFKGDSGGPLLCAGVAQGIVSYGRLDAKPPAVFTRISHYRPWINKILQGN

[5] = test system: rat monocrotaline-induced pulmonary hypertension model; experiment: Test in rat monocrotaline-induced pulmonary hypertension model; assay type: in vivo
Experimental: Test in Rat Monocrotaline-Induced Pulmonary Hypertension Model
Into 1.2 mL of 1 mol/L hydrochloric acid was dissolved 200 mg of monocrotaline, followed by addition of 5 mL of distilled water. The solution was neutralized with 0.5 mol/L sodium hydroxide, and further diluted with distilled water so as to be 10 mL (20 mg/mL). Moreover, a solution containing the solvent alone without monocrotaline was prepared as Solvent A. A test compound was suspended into olive oil (25 mg/mL). Furthermore, a solution containing no test compound but the solvent alone was prepared as Solvent B.
Monocrotaline (60 mg/kg-body weight) was administrated subcutaneously at the posterior region of neck of five 5-week-old SD male rats. From 3 days before monocrotaline administration to 20 days after the administration, a test compound was administered intraperitoneally twice a day at a dose of 50 mg/kg-body weight. On the next day of the final administration of the test compound, the rats were fixed supinely under anesthetization with intraperitoneal administration of sodium pentobarbital. And then blood pressure was measured with cannula inserted from left carotid artery and systolic pressure at right ventricle was measured with cannula inserted from right […] and introduced into right ventricle, via a pressure transducer by means of a pressure-strain gauge. After slaughter of the animals, the heart was removed and weight of right ventricle, weight of left ventricle and septum, and diameter and medial thickness of pulmonary artery having a diameter within a range of 50 to 150 μm were measured. Moreover, from these measured values, a weight ratio of right ventricle/(left ventricle+septum) and medial thickening ratio {(medial thickness/outer diameter of the blood vessel)×100} were determined. In this regard, a group wherein the rats to which monocrotaline was administered was treated with Solvent B alone in an amount of 2 mL/kg-body weight in the same administration schedule as above was named “Solvent-administered group”. In addition, a group wherein the rats to which Solvent A was administered in an amount of 3 mL/kg-body weight was treated with Solvent B in an amount of 2 mL/kg-body weight was named “Monocrotaline-untreated group”.

[6] = target: T4, Human chymase (Homo sapiens, UniProt P23946); experiment: Measurement of inhibitory activity of human chymase (Ang I substrate, His-Leu/OPT fluorescence)
T4 sequence (P23946 22-247): T3 sequence (F6SAJ2 22-247 limits assumed) with S29F, K63E, Y159D, L201S, K221Q, G225A
Experimental: That is, the activity was measured by reacting free His-Leu formed together with Ang II with o-phthalaldehyde (hereinafter, abbreviated as OPT) to prepare a fluorescent derivative and determining the amount quantitatively by means of a fluorophotometer.
First, 3.6 μmol of each test compound was weighed in a test tube and was dissolved into 3 mL of DMSO. The DMSO solution was diluted 1000-fold with 20 mmol/L Tris-hydrochloric acid buffer solution (pH 8.0) containing 0.01% Triton X-100 and 0.5 mol/L potassium chloride to prepare 1.2×10^−6 mol/L solution, which was successively diluted with the buffer solution to prepare test sample solutions having concentrations of 1.2×10^−6 mol/L to 1.2×10^−9 mol/L. To 500 μL of the test sample solution of each concentration or buffer solution was added 50 μL of an enzyme solution, followed by 10 minutes of pre-incubation at 37° C. Then, 50 μL of 0.1 mmol/L Ang I solution was added to initiate a reaction. Human angiotensin I (manufactured by SIGMA) was employed as Ang I. The enzyme solution to be used for the reaction was adjusted so as to hydrolyze about 60% of substrate under the conditions, and the reaction wherein a buffer solution containing no enzyme was carried out as a blind test. […] Thereafter, the reaction mixture was centrifuged at 4° C. at 3,000 rpm for 10 minutes and 2 mL of 2 mol/L sodium hydroxide and 1 mL of methanol were added to 1 mL of the resulting supernatant. […] The measurement was repeated twice for each sample and blind test. The fluorescence intensity obtained by subtracting the average value at blind test from the average value thereof was determined as chymase activity.
In this regard, an enzymatic reaction using a buffer solution instead of the test sample solution was carried out as a control, and inhibitory ratio of chymase activity was determined as percentage by dividing the difference of subtraction of the activity at the addition of the test compound from the chymase activity at the control by the chymase activity at the control.

[7] = test system: hamster adhesion model; experiment: Investigation in hamster adhesion model; assay type: in vivo; settings: 1 mL saline solution 10^−4 mol/L intraperitoneally; 4 weeks after operation; 5-grade score 0-4; control 2.0; p<0.05
Experimental: Investigation in Hamster Adhesion Model
Five-week-old female hamster (10 hamsters per each group) was anesthetized by administering intraperitoneally pentobarbital sodium (50 mg/kg) and, after midline incision at abdominal region, the uterus was rubbed with a cotton swab. Thereafter, 1 mL of saline solution of a test compound (Compound 24: 10^−4 mol/L) was added dropwise intraperitoneally, and then the incised part was sutured. On the other hand, as a control, saline alone was added dropwise, followed by a similar treatment.
After 4 weeks from the operation, the animals were slaughtered, the abdominal part was exposed and adhesion was investigated. The adhesion was judged using the following 5-grade scoring system and the data were analyzed according to Mann-Whitney U test.
(§5) 1: Very weak adhesion (film-like adhesion easily releasable)
(§6) 2: Limited adhesion (strong adhesion difficult to release at only one point)
(§7) 3: Wide-range adhesion (strong adhesion difficult to release at several points)
(§8) 4: Very strong adhesion (very strong adhesion impossible to release)

[8] = Stability in rat plasma; assay type: in vitro ADME; settings: 10 μg/mL, 37° C., 60 minutes, HPLC
Experimental: Stability of the compounds of the invention in rat plasma was investigated.
Male SD rats (7-week-old) were anesthetized with ether under over-night fasting conditions and, after an abdominal part was incised, blood was collected from aorta abdominalis using a heparinized disposable plastic syringe. The blood was centrifuged under cooling to collect a supernatant plasma. The collected plasma was stored under freezing at −30° C. and was melted before use. After a test compound was dissolved in DMSO, the solution was added to 200 μL of the plasma so as to be 10 μg/mL, followed by incubation at 37° C. After 60 minutes, the mixture was acidified by adding 200 μL of 0.1 mol/L hydrochloric acid, and then extracted twice with 2 mL of ethyl acetate. The resulting organic layer was evaporated to dryness under a nitrogen gas flow and the residue was dissolved into 200 μL of acetonitrile to prepare a sample solution. On the other hand, the test compound was dissolved into 1% acetonitrile solution of DMSO so as to be 10 μg/mL as a control solution. The sample solution and control solution was investigated by high performance liquid chromatography (hereinafter, abbreviated as HPLC). Residual ratio (%) was determined as percentage by dividing the peak area of the sample solution by the peak area of the control solution.
Column: Waters Nova Pack C18 (inner diameter: 3.9 mm, length: 150 mm)
Mobile phase A: acetonitrile/water=10/90
Mobile phase B: acetonitrile/methanol=50/50
Eluent: Mobile phase A-mobile phase B (100/0 to 0/100, linear gradient, 50 minutes)
Amount of injection: 50 μL

[9] = test system: canine eye postoperative adhesion model; experiment: Investigation in canine eye postoperative adhesion model; assay type: in vivo, beagle dog; settings: sponge with saline solution 10^−4 mol/L for 3 minutes; 7 days after operation; 5-grade score 0-4; control 3.67; p<0.05
Experimental: Investigation in Canine Eye Postoperative Adhesion Model
A beagle dog was anesthetized and each conjunctiva of both eyes thereof was peeled in a size of 10 mm×5 mm under a stereomicroscope. At that time, Tenon was left at conjunctival side and was not left at scleral side. After a sponge immersed in a saline solution of a test compound (Compound 70) was placed at the incised part for 3 minutes, the incised part was put in one stitch with 10-0 nylon thread. The concentration of the test compound solution was 10^−4 mol/L and a saline was used in a control group (6 dogs per each group).
After 7 days from the operation, the animals were slaughtered, the eyeballs were taken out and adhesion was investigated. After the thread used at the stitching in the model preparation was cut, evaluation was carried out by pulling the conjunctiva part with tweezers and scoring the adhesion state. The score values were determined according to the following 5-grade scores, and Mann-Whitney U test was used for analyzing the data.
as §5, §6, §7, §8

[10] = monocrotaline-treated SD male rats, 50 mg/kg intraperitoneally twice a day, 3 days before to 20 days after monocrotaline
[11] = chymase from heart of rhesus monkey, 120 minutes at 37° C., read-out: Simian chymase IC50 value

Row | SMILES | IC50 [1] [µM] | total percentage of scores 3 and 4 showing severe adhesions [2] [%] | IC50 [3] [µM] | IC50 [4] [nM] | Medial thickening ratio ([5]; (medial thickness/outer diameter of the blood vessel)×100, pulmonary artery 50 to 150 μm, 50 mg/kg intraperitoneally twice a day) | thickening of medial muscular layer (increase of medial thickening ratio) ([5]; monocrotaline-induced pulmonary hypertension, result in words) | Weight ratio of right ventricle/(left ventricle + septum) ([5]; monocrotaline-treated SD male rats, 50 mg/kg intraperitoneally twice a day) | Average blood pressure [5, 10] [mmHg] | Systolic pressure at right ventricle [5, 10] | Weight of right ventricle [5, 10] [mg] | IC50 ([6]; read-out: Human cymase IC50 value, human chymase from silkworms infected with baculovirus, 120 minutes at 37° C.) [nM] | melting point [°C] | IC50 [4, 11] [nM] | average adhesion score [7] | Residual ratio in rat plasma [8] [%] | IC50 [6] [nM] | average adhesion score [9]
1 | COC(=O)c1ccc(NS(=O)(=O)c2sc3ccc(Cl)cc3c2C)c(OC)c1 [Compound 7, Methyl 4-(5-chloro-3-methylbenzo[b]thiophene-2-sulfonylamino)-3-methoxybenzoate] | > 1 | 33.3 | > 1 | – | – | – | – | – | – | – | – | – | – | – | – | – | –
2 | COC(=O)c1ccc(NS(=O)(=O)c2sc3ccc(F)cc3c2C)c(S(C)(=O)=O)c1 [Compound 17, methyl 4-(5-fluoro-3-methylbenzo[b]thiophene-2-sulfonylamino)-3-methanesulfonylbenzoate] | > 10 | – | > 10 | 9 | 10.55 ± 1.80 | suppressed | 0.39 ± 0.04 | 111 ± 19 | 57 ± 11 | 233 ± 24 | 56 | – | – | – | – | – | –
3 | Cc1c(S(=O)(=O)Nc2ccc(-c3nc(C(=O)O)co3)cc2S(C)(=O)=O)sc2ccc(F)cc12 [Compound 24, 2-[4-(5-fluoro-3-methylbenzo[b]thiophene-2-sulfonylamino)-3-methanesulfonylphenyl]oxazole-4-carboxylic acid] | > 10 | 41.7 | > 10 | – | – | – | – | – | – | – | – | 207 to 208 | 2 | 0.9 | 100 | 37 | –
4 | Cc1c(S(=O)(=O)Nc2ccc(-c3nc(C(=O)O)cs3)cc2S(C)(=O)=O)sc2ccc(F)cc12 [Compound 70, 2-[4-(5-fluoro-3-methylbenzo[b]thiophene-2-sulfonylamino)-3-methanesulfonylphenyl]thiazole-4-carboxylic Acid] | > 10 | – | > 10 | – | – | – | – | – | – | – | – | – | 0.4 | – | – | 7 | 2.67
